Data reported in patent US20120003655A1, “IDENTIFICATION OF NEUROPROTECTIVE AGENTS USING PRO-INFLAMMATORY HUMAN GLIAL CELLS” (The Salk Institute for Biological Studies, priority 2008, published 2012).
“Also recorded” adds a separate entry of the source.

Legend:
[1] = system: primary human astrocytes; assay: qPCR of IL1b-induced genes in primary human astrocytes; type: cell-based; conditions: 1 μM for 1 hour, then 10 ng/ml IL1b 6 hours; qPCR normalized against HPRT
Procedure: (§1) FIGS. 31A-F show indazol-estrogen suppression of the inflammation in human primary microglia and astrocytes. Primary human microglia (FIGS. 31A-C) and primary human atrocities (FIGS. 31D-E) were treated with Indazol-Estrogen-Bromide (Br), Indazol-Estrogen-Chloride (Cl), 17β-Estradiol (E2) or vehicle (ethanol:EtOH) for 1 hour followed by […] LPS stimulation for 6 hours (black column: 6 hr) or no LPS treatment (white column: Ohr). Normalized mRNA expression against HPRT of IL1β (FIG. 31A), IL23p19 (FIG. 31B), TGFβ (FIG. 31C) in microglia cells and BAFF (FIG. 31D), IL23p19 (FIG. 31E), iNOS (FIG. 31F) in astrocytes were determined using quantitative PCR. Primary human microglia and astrocytes were treated with 1 μM Indazol-Estrogen-Bromide (Br), 1 μM Indazol-Estrogen-Chloride (C1), 1 μM17β-Estradiol (E2) or vehicle (ethanol:EtOH) for 1 hour as a final concentration. Then microglia cells were stimulated with 0.1 μg/ml LPS and astrocytes were stimulated with 10 ng/ml IL1b for 6 hours. mRNA were purified and cDNA were generated by reverse transcriptase reaction. To determine the effect of ERβ-specific ligands in microglia and astrocytes-mediated inflammation, the activation of several genes induced by LPS in microglia or by IL1b in astrocytes were determined by QPCR normalized against HPRT.

[2] = system: primary human microglia; assay: qPCR of LPS-induced genes in primary human microglia; type: cell-based; conditions: 1 μM for 1 hour, then 0.1 μg/ml LPS 6 hours; qPCR normalized against HPRT
Procedure: as §1

[3] = system: SOD^G37R mutated astrocyte cultures; assay: Detection of ROS production in SOD1 G37R astrocytes after anti-oxidant treatment; type: cell-based, human; conditions: 48 hours treatment, vs vehicle (EtOH or DMSO); apocynin 300 μM, alpha lipoic acid 50 μg/mL, epicatechin 10 μM, luteolin 5 μM, resveratrol 5 μM
Procedure: Primary astrocyte culture. Human primary astrocytes (HA1800) were obtained from ScienCell Research Laboratories™ (Carlsbad, Calif.) and were cultured according to the providers' guidelines. Briefly, the astrocytes were isolated from fetal human brain (cerebral cortex) and cultured for no more than 15 passages in astrocyte media (AM 1801). The infections were performed in 80% confluent T75 flasks followed by incubation with the lentivirus expressing either the wild type of SOD1 (LV-SOD1^wT) or the mutated form of SOD1 (LV-SOD1^G37R).
Detection of ROS production. Detection of total cellular ROS was performed using the Image-iT LIVE Green reactive Oxygen Species Detection Kit, according to the manufacturer's directions (Molecular Probes, Invitrogen). Briefly, this assay is based on the principle that the live cell permeable compound, carboxy-H2DCFDA, emits a bright green fluorescence when it is oxidized in the presence of ROS. The quantification of the ROS production was addressed in 2 ways: 1) counting the number of fluorescent cells and 2) measuring the intensity of the fluorescence emitted by the cells. The relative fluorescence intensity (arbitrary units ranging from 0 to 255, or black to white) was measured in randomly selected fields for each treatment and was analyzed and quantified using ImageProPlus software.
Anti-oxidants treatment. Anti-oxidants stock solutions were diluted in astrocyte media and directly applied to astrocyte monolayers. The cultures were treated for 48 hours prior to reactive species of oxygen (ROS) detection. The compounds used in the experiment were epicatechin (E4018 Sigma Aldrich, 10 μM), luteolin (L9283 Sigma-Aldrich, 5 μM), resveratrol (R5010Sigma-Aldrich, 5 μM), apocynin (178385 Calbiochem, 300 μM), alpha lipoic acid (T5625, Sigma-Aldrich, 50 μg/mL). For neuronal co-cultures, the astrocytes were pre-treated for 48 hours with apocynin and the rosettes were plated on top of them. The co-cultures were carried for 3 more weeks and the medium containing apocynin was replaced three more times during the co-culture period.
A total of five compounds and their respective vehicles (ethanol (EtOH) or DMSO) were tested in SOD^G37R mutated astrocyte cultures to address their anti-oxidant potential (FIG. 4A).

[4] = system: HESC-derived motor neurons co-cultured with SOD1^G37R astrocytes; assay: Co-culture of HESC-derived motor neurons with SOD1 astrocytes, quantification of ChAT-positive cells; type: cell-based, human; conditions: astrocytes pre-treated 48 hours with apocynin, co-culture 3 more weeks
Procedure: Culture conditions and differentiation of HESC. The HUES cells lines used in this study were HUES9 (Douglas Melton-WiCell) and Cythera 203 (Novocell Inc. San Diego, Calif.). The HESC were differentiated in vitro in motor neurons, adapting the protocol previously described elsewhere (Li et al., 2005). Briefly, the cells were manually dissociated to form embryoid bodies (EBs) and cultured in suspension for 5-6 days. The EBs were then plated in laminin/poli-ornithin coated plates in the presence of a neural induction medium consisting of F12/DMEM (Invitrogen, Carlsbad, Calif.), N2 supplement and 1 μM retinoic acid (RA). The cells started to organize into neural tube-like rosettes and, after 7-8 days in culture, sonic hedgehog (SHH, 500 ng/ml, R&D Systems) and cAMP (1 μM) were added to the culture media for 1 more week. The rosettes were then manually selected using a 10× magnifier (Zeiss) and gently dissociated (by pipetting up and down in a Hanks' enzyme free cell dissociation buffer-Invitrogene). After dissociation, rosettes were pelleted at 1,000 rpm and re-plated either on laminin/poli-ornithine coated coverslips (for direct differentiation) or on top of astrocyte feeder layers for the co-culture experiments. […]

SMILES	BAFF mRNA [1]	IL23 (IL23p19) mRNA [1]	iNOS mRNA [1]	percentage of cells that were able to produce ROS (percentage of oxidation) [3]	also measured
C[C@]12CC[C@@H]3c4ccc(O)cc4CC[C@H]3[C@@H]1CC[C@@H]2O [Estradiol, 17β-Estradiol]	not	not	not	–	–
Oc1ccc(-n2nc3ccc(O)cc3c2Br)cc1 [Indazol-Br]	repress	repress	repress	–	TGFβ mRNA [2]: do not repress; induction of IL1β mRNA [2]: repress; induction of IL23 (IL23p19) mRNA [2]: repress
Oc1ccc(-n2nc3ccc(O)cc3c2Cl)cc1 [Indazol-Cl]	repress	repress	repress	–	TGFβ mRNA [2]: do not repress; induction of IL1β mRNA [2]: repress; induction of IL23 (IL23p19) mRNA [2]: repress
O=C(O)CCCCC1CCSS1 (stereo not drawn) [alpha-lipoic acid, alpha lipoic acid]	–	–	–	decreased the percentage of cells that were able to produce ROS	–
COc1cc(C(C)=O)ccc1O [apocynin]	–	–	–	decreased the percentage of cells that were able to produce ROS; also recorded: decreased the ROS production	motor neuron survival (ChAT-positive cells) [4]: restored motor neuron survival; also recorded: recovery of motor neuron survival; motor neuron survival (ChAT-positive cells) ([4]; listed as Apocynin): rescued the motor neuron survival
O=c1cc(-c2ccc(O)c(O)c2)oc2cc(O)cc(O)c12 [luteolin]	–	–	–	did not seem to have a detectable effect	–
Oc1ccc(C=Cc2cc(O)cc(O)c2)cc1 [resveratrol]	–	–	–	did not seem to have a detectable effect	–
